Patent publication US20230339878A1, “SLC26A3 INHIBITORS AND USE THEREOF” (THE REGENTS OF THE UNIVERSITY OF CALIFORNIA, priority 2018, published 2023)
“Also recorded” adds a separate entry of the source.

Target: T1, TMEM16A (Homo sapiens, UniProt Q5XXA6)
T1 sequence (Q5XXA6 1-986): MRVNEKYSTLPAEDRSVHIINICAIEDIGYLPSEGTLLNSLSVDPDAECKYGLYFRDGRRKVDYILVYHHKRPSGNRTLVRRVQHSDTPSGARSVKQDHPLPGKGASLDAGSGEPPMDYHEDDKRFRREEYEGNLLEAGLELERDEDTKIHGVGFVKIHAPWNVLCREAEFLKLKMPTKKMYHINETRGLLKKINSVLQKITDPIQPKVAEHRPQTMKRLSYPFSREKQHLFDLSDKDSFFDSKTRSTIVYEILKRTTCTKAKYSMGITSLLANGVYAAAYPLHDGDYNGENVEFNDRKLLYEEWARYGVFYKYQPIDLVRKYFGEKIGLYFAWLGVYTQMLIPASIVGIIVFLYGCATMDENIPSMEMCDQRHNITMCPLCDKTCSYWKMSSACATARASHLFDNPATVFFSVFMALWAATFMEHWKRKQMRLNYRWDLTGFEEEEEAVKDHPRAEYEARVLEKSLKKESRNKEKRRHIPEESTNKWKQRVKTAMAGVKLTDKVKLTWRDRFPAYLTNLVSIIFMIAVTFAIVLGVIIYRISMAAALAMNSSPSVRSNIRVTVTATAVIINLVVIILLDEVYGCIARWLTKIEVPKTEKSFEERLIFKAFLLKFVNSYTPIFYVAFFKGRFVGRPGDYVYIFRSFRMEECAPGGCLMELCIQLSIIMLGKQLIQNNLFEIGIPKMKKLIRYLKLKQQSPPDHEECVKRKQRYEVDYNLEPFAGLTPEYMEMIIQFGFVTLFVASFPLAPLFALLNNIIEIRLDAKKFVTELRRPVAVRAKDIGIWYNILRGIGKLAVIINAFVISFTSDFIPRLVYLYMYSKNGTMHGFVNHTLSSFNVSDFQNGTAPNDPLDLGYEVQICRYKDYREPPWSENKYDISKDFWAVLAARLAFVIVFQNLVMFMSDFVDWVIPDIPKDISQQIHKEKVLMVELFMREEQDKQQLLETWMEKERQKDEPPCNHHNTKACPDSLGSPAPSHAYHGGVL
Assay: Selectivity: TMEM16A (ATP-stimulated) YFP assay
Assay type: cell-based
Details: 10 µM
Source text: To investigate Compound A1 selectivity, transport assays were done on a panel of SLC26-family homologs, and other relevant epithelial ion transporters and channels. […] In separate studies, to investigate possible action of Compound A1 on multiple ion transporters and channels in a human epithelium, human bronchial epithelial (HBE) cells were studied by short-circuit current, with successive additions of amiloride (to block the epithelial sodium channel ENaC), forskolin, CFTRinh-172 (to block CFTR), and ATP (to activate the Ca^2+-activated chloride channel, CaCC) (FIG. 5C).
YFP-based assays of CFTR, pendrin and TMEM16A were as described. HEK cells transfected to express YFP and SLC26A3, slc26a6 or slc26a9 were functionally assayed using a Cl^-/I^- exchange protocol. Assays of Cl^-/HCO3^- exchange were done using BCECF as an intracellular pH indicator as described for pendrin. […]
HEK293 cells transfected with pIRES-YFP-slc26a9 were plated in 96-well black-walled, clear-bottom tissue culture plates (Corning Life Sciences, Tewksbury, MA) after coating with FNC Coating Mix (AthenaES, Baltimore, MD). […] Assays of slc26a9-mediated anion exchange were done by initially recording YFP fluorescence prior to addition of 100 µL of NaI-substituted PBS to test wells, with the initial rate of Cl^-/I^- exchange deduced from fluorescence intensity by single exponential regression. […]

Cc1c(CC(=O)O)c(=O)oc2c(C)c(OCc3cccc(Br)c3)ccc12 [Compound A1]
effect on activity of TMEM16A: did not alter the activity; also recorded: differences not significant
